Measurements from US12064426B2, “Selective inhibitors of ROCK1 and ROCK2 protein kinases and uses thereof” (GENOSCO Inc., priority 2021, dated 2024).

How the values were obtained:
[1] = target: T1, Recombinant ROCK2 (amino acids 5-554) (Homo sapiens, UniProt O75116); experiment: ROCK inhibition assay, LANCE Ultra TR-FRET kinase assay (ROCK2); assay type: biochemical; conditions: 4 μM ATP, 50 nM ULight-CREBtide substrate
T1 construct: ROCK2 (amino acids 5-554); by word order, ROCK2 from SignalChem
T1 sequence (O75116 5-554): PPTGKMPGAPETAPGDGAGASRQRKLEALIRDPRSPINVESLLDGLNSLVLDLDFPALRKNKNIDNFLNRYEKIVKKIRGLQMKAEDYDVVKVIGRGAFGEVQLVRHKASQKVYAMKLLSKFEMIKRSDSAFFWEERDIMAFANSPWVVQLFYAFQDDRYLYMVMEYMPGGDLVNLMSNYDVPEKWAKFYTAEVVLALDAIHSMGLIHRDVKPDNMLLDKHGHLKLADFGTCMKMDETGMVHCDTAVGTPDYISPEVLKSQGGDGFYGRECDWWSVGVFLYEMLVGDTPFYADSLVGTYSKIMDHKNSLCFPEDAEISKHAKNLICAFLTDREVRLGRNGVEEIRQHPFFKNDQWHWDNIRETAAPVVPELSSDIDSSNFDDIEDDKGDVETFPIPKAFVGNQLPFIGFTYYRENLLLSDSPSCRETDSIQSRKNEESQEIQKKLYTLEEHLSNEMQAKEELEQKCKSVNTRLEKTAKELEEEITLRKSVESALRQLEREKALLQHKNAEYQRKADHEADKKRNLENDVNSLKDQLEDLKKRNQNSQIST
Summary of the method: (§1)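 Reaction buffer 50 mM HEPES pH 7.5, 10 mM MgCl2, 1 mM EGTA, 2 mM DTT; kinase, ULight-CREBtide (50 nM) and ATP (ROCK1 1 μM, ROCK2 4 μM) react 1 h at room temperature. Phospho-Ser133 detected by europium antibody after 10 mM EDTA stop, TR-FRET ex 320 nm; IC50 calculated.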

[2] = target: T2, Recombinant ROCK1 (amino acids 1-477) (Homo sapiens, UniProt Q13464); experiment: ROCK inhibition assay, LANCE Ultra TR-FRET kinase assay (ROCK1); assay type: biochemical; conditions: 1 μM ATP, 50 nM ULight-CREBtide substrate
T2 construct: Recombinant ROCK1 (amino acids 1-477); by word order, ROCK1 from Carna Biosciences
T2 sequence (Q13464 1-477): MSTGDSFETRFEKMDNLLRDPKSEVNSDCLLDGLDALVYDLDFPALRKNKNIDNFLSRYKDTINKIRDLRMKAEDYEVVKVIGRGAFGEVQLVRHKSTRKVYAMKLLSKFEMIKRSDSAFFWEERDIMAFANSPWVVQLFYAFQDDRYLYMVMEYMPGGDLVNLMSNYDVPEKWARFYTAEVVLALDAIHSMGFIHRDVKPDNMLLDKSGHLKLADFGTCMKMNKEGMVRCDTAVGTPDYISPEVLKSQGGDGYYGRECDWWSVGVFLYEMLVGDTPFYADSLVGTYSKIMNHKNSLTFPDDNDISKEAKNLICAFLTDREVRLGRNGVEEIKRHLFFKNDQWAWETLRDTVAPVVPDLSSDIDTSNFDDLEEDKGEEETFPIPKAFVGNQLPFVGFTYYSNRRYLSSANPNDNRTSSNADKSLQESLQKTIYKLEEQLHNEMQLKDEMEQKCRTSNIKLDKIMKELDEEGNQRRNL
Summary of the method: as §1

| Structure (SMILES) | IC50 [1] [nM] | IC50 [2] [nM] |
| --- | --- | --- |
| CNC(=O)c1cc(F)cc(Cn2ccc3cc(N4CCOCC4)ccc3c2=O)c1 [Compound 329] | 10 to 100 | 101 to 500 |
| O=C(NCC1COC1)c1cccc(Cn2cnc3cc(-c4cn[nH]c4C(F)(F)F)ccc3c2=O)c1 [Compound 380] | < 10 | 11 to 100 |
| O=c1c2ccc(-c3c[nH]nc3Cl)cc2ccn1Cc1cccc(O)c1 [Compound 20] | < 10 | < 10 |
| O=c1c2ccc(-c3cn[nH]c3Cl)cc2ncn1C(CO)c1cccc(Cl)c1 (stereo not drawn) [Compound 487] | 10 to 100 | 11 to 100 |
| C[C@H](c1cccc(C(=O)NCCO)c1)n1cnc2cc(-c3ccnn3C)ccc2c1=O [Compound 480] | 10 to 100 | 101 to 500 |
| O=C(NCC1COC1)c1cc(F)cc(Cn2ccc3cc(-c4c[nH]nc4C(F)(F)F)ncc3c2=O)c1 [Compound 258] | < 10 | 11 to 100 |
| CN1CC(CNC(=O)c2cccc(Cn3ccc4cc(-c5ccnn5C)ccc4c3=O)c2)C1 [Compound 168] | < 10 | < 10 |
| O=C(NCC1CCNCC1)c1cccc(Cn2ccc3cc(-c4c[nH]nc4C(F)F)ccc3c2=O)c1 [Compound 57] | < 10 | < 10 |
| CNC(=O)c1cccc(C(C)n2ccc3cc(-c4cn[nH]c4Cl)ccc3c2=O)c1 (stereo not drawn) [Compound 292] | < 10 | 11 to 100 |
| CNC(=O)c1cccc(Cn2ccc3cc(-c4cn[nH]c4)ccc3c2=O)c1 [Compound 308] | < 10 | < 10 |
| CNC(=O)c1cccc(Cn2ccc3cc(-c4ccnc(N)c4)ncc3c2=O)c1 [Compound 244] | 10 to 100 | 101 to 500 |
| Cc1n[nH]cc1-c1ccc2c(=O)n(Cc3cccc(C(=O)Nc4cccc(S(N)(=O)=O)c4)c3)ccc2c1 [Compound 34] | 100 to 500 | > 501 |
| N#Cc1cccc(C(CN)n2cnc3cc(-c4cn[nH]c4Cl)ccc3c2=O)c1 (stereo not drawn) [Compound 504] | 100 to 500 | > 501 |
| COc1cccc(C(CO)n2cnc3cc(-c4cn[nH]c4Cl)ccc3c2=O)c1 (stereo not drawn) [Compound 491] | 10 to 100 | 11 to 100 |
| Cc1nocc1-c1ccc2c(=O)n(Cc3cc(F)cc(C(=O)Nc4nc5c(s4)CCN(C)C5)c3)ccc2c1 [Compound 158] | < 10 | 11 to 100 |
| O=C(NC1CCNCC1)c1cc(F)cc(Cn2ccc3cc(-c4c[nH]nc4C(F)(F)F)ccc3c2=O)c1 [Compound 131] | < 10 | < 10 |
| O=C(N[C@H]1CC[C@@H](O)CC1)c1cc(F)cc(Cn2ccc3cc(-c4c[nH]nc4C(F)F)ncc3c2=O)c1 [Compound 275] | < 10 | 11 to 100 |
| CN1CCC(NC(=O)c2cc(F)cc(Cn3ccc4cc(-c5c[nH]nc5C(F)(F)F)ncc4c3=O)c2)CC1 [Compound 259] | < 10 | 11 to 100 |
| COc1cccc(C(CO)n2cnc3cc(-c4cn[nH]c4C(F)(F)F)ccc3c2=O)c1 (stereo not drawn) [Compound 490] | 10 to 100 | 11 to 100 |
| CNC(=O)c1cccc(Cn2ccc3cc(-c4cc[nH]c4C)ccc3c2=O)c1 [Compound 306] | 100 to 500 | 101 to 500 |

| Structure (SMILES) | IC50 [1] [nM] | IC50 [2] [nM] |
| --- | --- | --- |
| Cn1nccc1-c1ccc2c(=O)n(Cc3cccc(C(=O)NCC4COC4)c3)ccc2c1 [Compound 111] | < 10 | 101 to 500 |
| CC(O)c1cn(Cc2cccc(C(=O)NCCc3ccccn3)c2)c(=O)c2ccc(-c3c[nH]nc3Cl)cc12 (stereo not drawn) [Compound 543] | < 10 | < 10 |
| CNC(=O)c1cc(F)cc(C(C)n2ccc3cc(-c4cn[nH]c4Cl)ccc3c2=O)c1 (stereo not drawn) [Compound 294] | < 10 | 11 to 100 |
| O=C(N[C@H]1CC[C@H](O)CC1)c1cccc(Cn2cnc3cc(-c4cn[nH]c4C(F)(F)F)ccc3c2=O)c1 [Compound 383] | < 10 | 11 to 100 |
| O=C(N[C@H]1CC[C@H](O)CC1)c1cccc(Cn2ccc3cc(N4CCOCC4)ccc3c2=O)c1 [Compound 213] | 100 to 500 | > 501 |
| CC(c1cccc(O)c1)n1ccc2cc(-c3c[nH]nc3Cl)ccc2c1=O (stereo not drawn) [Compound 21] | < 10 | 11 to 100 |
| Cc1nocc1-c1ccc2c(=O)n(Cc3cccc(C(=O)Nc4nc5c(s4)CCN(C)C5)c3)ccc2c1 [Compound 94] | < 10 | < 10 |
| Cc1n[nH]cc1-c1ccc2c(=O)n(Cc3cccc(C(=O)Nc4ccc(S(N)(=O)=O)cc4)c3)ccc2c1 [Compound 36] | 100 to 500 | > 501 |
| Cc1nocc1-c1ccc2c(=O)n(Cc3cc(F)cc(C(=O)Nc4ccc5c(c4)CNCC5)c3)ccc2c1 [Compound 160] | < 10 | 11 to 100 |
| CNC(=O)c1cccc(Cn2cnc3cc(-c4cn[nH]c4C(F)F)ccc3c2=O)c1 [Compound 391] | < 10 | 11 to 100 |
| CC(=O)Nc1cc(F)cc(Cn2ccc3cc(-c4ccoc4C)ccc3c2=O)c1 [Compound 333] | 100 to 500 | > 501 |
| CNC(=O)c1cc(F)cc(C(C)n2cnc3cc(-c4cn[nH]c4C(F)(F)F)ccc3c2=O)c1 (stereo not drawn) [Compound 388] | < 10 | 11 to 100 |
| CNC(=O)c1cccc(Cn2cc(C(C)O)c3cc(-c4c[nH]nc4N)ccc3c2=O)c1 (stereo not drawn) [Compound 544] | < 10 | 11 to 100 |
| Cc1nocc1-c1ccc2c(=O)n(Cc3cccc(C(=O)NC4CCN(CC(F)(F)F)CC4)c3)ccc2c1 [Compound 87] | < 10 | 11 to 100 |
| Cn1nccc1-c1ccc2c(=O)n(Cc3cccc(C(=O)N[C@H]4CC[C@H](O)CC4)c3)ccc2c1 [Compound 115] | 10 to 100 | 101 to 500 |
| Cc1nocc1-c1ccc2c(=O)n(Cc3cccc(C(=O)NCCO)c3)ccc2c1 [Compound 102] | 10 to 100 | > 501 |
| Cc1nocc1-c1ccc2c(=O)n(Cc3cccc(C(=O)Nc4nc5c(s4)CCN(C(C)C)C5)c3)ccc2c1 [Compound 95] | < 10 | 11 to 100 |
| CC(c1cccc(O)c1)n1ccc2cc(-c3c[nH]nc3C(F)F)ccc2c1=O (stereo not drawn) [Compound 15] | < 10 | 11 to 100 |
| O=C(Nc1cccc(Cn2ccc3cc(-c4c[nH]nc4C(F)(F)F)ccc3c2=O)c1)C1CCOCC1 [Compound 339] | 10 to 100 | 101 to 500 |
| Cc1n[nH]cc1-c1ccc2c(=O)n(Cc3cccc(C(=O)Nc4cccc(OC(F)(F)F)c4)c3)ccc2c1 [Compound 35] | 100 to 500 | > 501 |

| Structure (SMILES) | IC50 [1] [nM] | IC50 [2] [nM] |
| --- | --- | --- |
| CC(=O)Nc1cccc(Cn2ccc3cc(-c4c[nH]nc4Cl)ccc3c2=O)c1 [Compound 345] | 10 to 100 | 11 to 100 |
| Cc1nocc1-c1ccc2c(=O)n(Cc3cccc(C(=O)NCC4CC4)c3)ccc2c1 [Compound 68] | 10 to 100 | 11 to 100 |
| Cn1nccc1-c1ccc2c(=O)n(Cc3cccc(C(=O)NCC4CCNCC4)c3)ccc2c1 [Compound 169] | < 10 | < 10 |
| Cc1nocc1-c1ccc2c(=O)n(Cc3cc(F)cc(C(=O)N[C@H]4C[C@@H](O)C4)c3)ccc2c1 [Compound 137] | 10 to 100 | 101 to 500 |
| CNC(=O)c1cc(F)cc(C(C)n2ccc3cc(-c4cn[nH]c4C(F)(F)F)ccc3c2=O)c1 (stereo not drawn) [Compound 283] | < 10 | 11 to 100 |
| CNC(=O)c1cccc(Cn2ccc3cc(-c4cn[nH]c4F)ccc3c2=O)c1 [Compound 297] | < 10 | 11 to 100 |
| CN1CCC(NC(=O)c2cc(F)cc(Cn3ccc4cc(-c5c[nH]nc5C(F)(F)F)ccc4c3=O)c2)CC1 [Compound 132] | < 10 | < 10 |
| O=C(Nc1ccno1)c1cccc(Cn2ccc3cc(N4CCOCC4)ccc3c2=O)c1 [Compound 206] | > 500 | > 501 |
| [2H]C([2H])([2H])NC(=O)c1cccc([C@@H](C)n2cnc3cc(-c4cn[nH]c4N)ccc3c2=O)c1 [Compound 519] | < 10 | 11 to 100 |
| Cc1nocc1-c1ccc2c(=O)n(Cc3cccc(C(=O)Nc4ccon4)c3)ccc2c1 [Compound 90] | 100 to 500 | > 501 |
| [2H]C([2H])([2H])NC(=O)c1cccc(Cn2ccc3cc(-c4cn[nH]c4Br)ccc3c2=O)c1 [Compound 513] | < 10 | 11 to 100 |
| O=C(Nc1cccc(Cn2ccc3cc(-c4c[nH]nc4C(F)F)ccc3c2=O)c1)c1cccnc1 [Compound 342] | 10 to 100 | 101 to 500 |
| Cn1nccc1-c1ccc2c(=O)n(Cc3cccc(C(=O)NCc4ccnc(F)c4)c3)ccc2c1 [Compound 117] | 10 to 100 | 101 to 500 |
| NCC(c1cccc(C(N)=O)c1)n1cnc2cc(-c3cn[nH]c3Cl)ccc2c1=O (stereo not drawn) [Compound 508] | 100 to 500 | > 501 |
| Cc1nocc1-c1ccc2c(=O)n([C@H](C)c3cccc(C(=O)NCC4CCN(C)CC4)c3)cnc2c1 [Compound 472] | < 10 | < 10 |
| CNC(=O)c1cccc(Cn2ccc3cc(-c4c[nH]nc4Cl)ncc3c2=O)c1 [Compound 235] | < 10 | 11 to 100 |
| O=C1c2ccc(-c3cn[nH]c3Cl)cc2NCN1[C@H](CO)c1cccc(Cl)c1 [Compound 525] | 100 to 500 | > 501 |
| [2H]C([2H])([2H])NC(=O)c1cccc([C@@H](C)n2cnc3cc(-c4cn[nH]c4Cl)ccc3c2=O)c1 [Compound 467] | < 10 | 11 to 100 |
| C[C@H](c1cccc(C(=O)NCC2CCN(C)CC2)c1)n1cnc2cc(-c3cn[nH]c3C(F)F)ccc2c1=O [Compound 461] | < 10 | < 10 |
| Cc1n[nH]cc1-c1ccc2c(=O)n(Cc3cccc(C(=O)Nc4ccc(F)nc4)c3)ccc2c1 [Compound 39] | 10 to 100 | 101 to 500 |
